For one assay, the target named is T1, Factor XIa (Homo sapiens, UniProt P03951).
T1 construct: purchased Haemochrom Diagnostica GmbH (Essen, D)
The assay is described as follows: Determination of Ki values, chromogenic substrate, Dixon evaluation: Factor XIa. Format: biochemical. The conditions noted are these: 25° C., tris buffer pH 8.0, substrate H-D-Lys(Cbo)-Pro-Arg-pNA. From the text: (§1) The inhibitors used here are the commercially available exemplary inhibitors Pefabloc tPA/Xa (2,7-bis(4-amidinobenzylidene)-cyclopeptanone-(1), Pentapharm Ltd. Basel, Switzerland), CJ-FXa (benzylsulphonyl-D-arginyl-glycyl-4-amidinobenzylamide, Haemochrom GmbH, Essen, Germany) and CJ-PK (benzylsulphonyl-D-seryl-carbobenzoxylsyl-4-amidinobenzylamide, Haemochrom GmbH, Essen, Germany). Research samples were available of DX-9065a ((+)-(2S)-2-[4-[[3S)-1-acetimidoyl-3-pyrrodinyl]oxy]phenyl]-3-[7-amidino-2-naphthyl]propanic acid, Daiichi Pharmaceutical Company Ltd., Tokyo, Japan), and Otamixaban (2-(R)-(3-carbamimidoylbenyzyl)-3-(R)-[4-(1-oxypyridin-4-yl)benzoylamino]-butyric acid-methylester, Sanofi-Aventis GmbH, Frankfurt, Germany), both of which are undergoing clinical tests. In order to examine the inhibitory action of these exemplarily used inhibitors on the blood coagulation factors plasma-kallikrein, VIIa, Xa, XIa and XIIa, the Ki values of the respective enzyme-inhibitor complexes were determined.
(§2) The enzymes were produced by Haemochrom Diagnostica GmbH (Essen, D) and were dissolved in 0.154 mol/l NaCl. The substrates (Pentapharm AG, Basel, CH) were dissolved in H2O and the inhibitor was dissolved in the above-mentioned tris buffer. The following substrates were used for the individual enzymes:
(§3) 200 μl of inhibitor solution were mixed with 25 μl of substrate for the determination and the reaction was started by the addition of 50 μl of enzyme. After a reaction time of 3-5 mins. 25 μl of acetic acid (50%) were added and the extinction was measured at 405 nm with a microplate reader (iEMS Reader MF 12401, Labsystems, Helsinki, Finland). The evaluation was carried out graphically according to Dixon (Biochem. J., 55, 170, 1953).
(§4) The enzymes were produced by Haemochrom Diagnostica GmbH (Essen, D), and only thrombin was manufactured in our own laboratory according to Walsmann (Pharmazie 23, 401-402, 1968). All the enzymes were dissolved in 0.154 mol/l NaCl. The substrates (Pentapharm AG, Basel, CH) were dissolved in H2O and the inhibitor was dissolved in the above-mentioned tris buffer. The following substrates were used for the individual enzymes:
(§5) 200 μl of inhibitor solution were mixed with 25 μl of substrate for the determination and the reaction was started by the addition of 50 μl of enzyme. After a reaction time of 3-5 mins. 25 μl of acetic acid (50%) were added and the extinction was measured at 405 nm with a microplate reader (iEMS Reader MF 1401, Labsystems, Helsinki, Finland). The evaluation was carried out graphically according to Dixon (Biochem. J., 55, 170, 1953).

A further assay has as its target T2, Plasma-kallikrein (Homo sapiens, UniProt P03952).
T2 construct: purchased Haemochrom Diagnostica GmbH (Essen, D)
The experiment in a line: Determination of Ki values, chromogenic substrate, Dixon evaluation: plasma-kallikrein. The class given is biochemical. The conditions noted are these: 25° C., tris buffer pH 8.0, substrate Bz-Pro-Phe-Arg-pNA; read-out: Ki PK (plasma-kallikrein).
From the text: In a particularly preferred embodiment the compound according to Formula (I) inhibits not only the blood coagulation factor XA but also thrombin and/or plasma kallikrein. […] Here too the Ki value stands for the dissociation constant of the respective enzyme-inhibitor complex. The determination of the Ki values of the inhibitors vis-a-vis thrombin and plasma kallikrein is preferably carried out in a similar manner to the determination, described above, of the Ki values of the inhibitors vis-a-vis the coagulation factor Xa, but in this case CH3SO2-D-HHT-gly-arg-pNA (with HHT=hexahydrothyrosin, and pNA=para-nitroaniline; sold under the commercial name Pefachrome tPA) are used as substrates in the case of thrombin and bz-pro-phe-arg-pNA (with bz=[…], and pNA=para-nitroaniline; sold under the commercial name Chromozym PK) in the case of plasma-kallikrein.
as §1, §2, §3, §4, §5

A further assay deals with thrombin formation. The experiment in a line: Inhibition of thrombin formation (prothrombin fragment F1+2) in hirudin-anticoagulated plasma after activation by kaolin. The class given is biochemical, human. The conditions noted are these: 37° C. The procedure:
In this example thrombin formation was activated in plasma anticoagulated with hirudin by the addition of kaolin and the ability of the inhibitors to inhibit thrombin formation was examined.
Blood sampled from a patient was initially anticoagulated by means of the thrombin inhibitor hirudin. For this purpose 9 parts of blood were mixed with 1 part of hirudin solution (recombinant hirudin HBW 023, Hoechst, Frankfurt, 2000 E/ml of physiological NaCl solution), then centrifuged for 10 minutes at 1300 revolutions per minute (rpm). 900 μl of the plasma anticoagulated with hirudin, present in excess, were mixed in polypropylene tubes with 50 μl of inhibitor solution or 0.9% NaCl solution and 50 μl kaolin suspension (from APTT-Test from Roche Diagnostics, diluted 1:250 before use with physiological NaCl solution), and incubated at 37° C. with light shaking. In this case kaolin acts as a non-physiological surface which activates the blood coagulation thereby finally stimulating thrombin formation. At certain times the quantity of the thrombin formed was determined immunologically on the basis of the formation of the prothrombin fragment F1+2 (Enzygnost F1+2 micro, Dade Behring GmbH, Marburg). This determination is based on an enzyme immunoassay according to the sandwich principle. For this purpose aliquot volumes (600 μl) were anticoagulated at certain times with 0.1 M EDTA (40 μl) and kept at −20° C. To determine the concentration of the prothrombin fragment F1+2 50 μl of plasma (if necessary diluted with PBS, phosphate-buffered saline) were incubated with monoclonal antibodies against the human prothrombin fragment F1+2, which were fixed on a microtitre plate included in the test kit. After a washing stage with PBS, which was used to remove sample material not bound by the antibodies, antibodies conjugated with peroxidase were incubated against human prothrombin binding to the free F1+2 determinants. […] This was then determined photometrically at a wavelength of 492 nm. […]

Another assay addresses T3, Factor Xa (Homo sapiens, UniProt P00742).
T3 construct: purchased Haemochrom Diagnostica GmbH (Essen, D)
The assay is described as follows: Determination of Ki values, chromogenic substrate, Dixon evaluation: Factor Xa. Format: biochemical. The conditions noted are these: 25° C., tris buffer pH 8.0, substrate CH3OCO-D-Cha-Gly-Arg-pNA.

T2 sequence (P03952 391-638 limits assumed): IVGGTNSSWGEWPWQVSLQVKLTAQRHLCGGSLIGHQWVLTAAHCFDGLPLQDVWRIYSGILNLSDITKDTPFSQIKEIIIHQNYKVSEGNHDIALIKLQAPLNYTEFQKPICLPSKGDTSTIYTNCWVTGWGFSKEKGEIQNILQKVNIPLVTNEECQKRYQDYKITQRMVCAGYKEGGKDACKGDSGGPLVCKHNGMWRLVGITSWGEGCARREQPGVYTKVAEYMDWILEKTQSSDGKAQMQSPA
T2 sequence (P03952 20-390 partner limits assumed): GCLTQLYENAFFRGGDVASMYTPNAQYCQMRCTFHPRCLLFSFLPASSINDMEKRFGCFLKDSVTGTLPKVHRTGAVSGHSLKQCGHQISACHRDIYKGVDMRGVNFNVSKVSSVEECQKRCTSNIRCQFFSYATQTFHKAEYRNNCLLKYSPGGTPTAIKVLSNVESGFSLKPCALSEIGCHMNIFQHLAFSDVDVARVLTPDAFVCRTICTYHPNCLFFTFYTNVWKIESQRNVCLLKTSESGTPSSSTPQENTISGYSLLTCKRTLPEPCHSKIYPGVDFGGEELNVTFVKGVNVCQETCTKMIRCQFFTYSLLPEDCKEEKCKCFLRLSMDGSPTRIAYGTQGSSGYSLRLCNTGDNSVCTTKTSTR
T1 sequence (P03951 388-625 limits assumed): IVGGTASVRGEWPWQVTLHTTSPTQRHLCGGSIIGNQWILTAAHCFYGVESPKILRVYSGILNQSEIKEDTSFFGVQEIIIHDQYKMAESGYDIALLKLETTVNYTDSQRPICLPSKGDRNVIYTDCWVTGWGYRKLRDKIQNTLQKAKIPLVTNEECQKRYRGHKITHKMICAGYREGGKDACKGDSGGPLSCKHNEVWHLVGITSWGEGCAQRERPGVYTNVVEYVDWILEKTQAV
T1 sequence (P03951 19-387 partner limits assumed): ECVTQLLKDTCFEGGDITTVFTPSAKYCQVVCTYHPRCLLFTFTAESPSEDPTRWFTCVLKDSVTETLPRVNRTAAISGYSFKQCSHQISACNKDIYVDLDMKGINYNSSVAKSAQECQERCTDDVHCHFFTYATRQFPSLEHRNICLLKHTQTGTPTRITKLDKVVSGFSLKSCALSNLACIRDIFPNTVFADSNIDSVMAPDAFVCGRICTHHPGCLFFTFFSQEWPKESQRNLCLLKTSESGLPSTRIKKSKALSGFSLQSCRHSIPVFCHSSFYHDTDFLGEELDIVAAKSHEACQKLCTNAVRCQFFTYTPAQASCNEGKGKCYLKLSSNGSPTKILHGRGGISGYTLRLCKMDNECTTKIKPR
T3 sequence (P00742 235-488 limits assumed): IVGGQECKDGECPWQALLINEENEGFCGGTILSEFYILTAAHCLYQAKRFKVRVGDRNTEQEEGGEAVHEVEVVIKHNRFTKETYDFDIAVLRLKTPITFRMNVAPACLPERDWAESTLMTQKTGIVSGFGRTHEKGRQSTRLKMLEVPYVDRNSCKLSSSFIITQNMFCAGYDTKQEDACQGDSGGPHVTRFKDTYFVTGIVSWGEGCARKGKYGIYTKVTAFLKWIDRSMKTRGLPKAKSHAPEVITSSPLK
T3 sequence (P00742 41-179 partner limits assumed): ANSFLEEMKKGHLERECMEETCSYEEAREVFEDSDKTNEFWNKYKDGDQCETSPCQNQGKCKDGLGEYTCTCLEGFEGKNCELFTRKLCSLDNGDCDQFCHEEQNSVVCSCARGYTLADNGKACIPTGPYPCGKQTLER

Broadly, the Ki is a measure of affinity in units of concentration, obtained from inhibition or displacement. Consider `COC(=O)[C@H](Cc1cccc(C(=N)N)c1)[C@@H](C)NC(=O)c1ccc(-c2cc[n+]([O-])cc2)cc1` (mixture of isomers) [Otamixaban, 2-(R)-(3-carbamimidoylbenyzyl)-3-(R)-[4-(1-oxypyridin-4-yl)benzoylamino]-butyric acid-methylester], for which the inhibition constant (Ki) at Factor XIa was found to be 23000 nM; on Plasma-kallikrein, 26 nM. In addition, the “suppression/blocking of thrombin formation after kaolin activation” value in the assay on thrombin formation (concentration not stated in the sentence (FIGS. 1-3, 6)) is reported as “particularly suitable for blocking thrombin formation”.
Consider `N=C(N)c1ccc(C=C2CCCCC(=Cc3ccc(C(=N)N)cc3)C2=O)cc1` [Pefabloc tPA/Xa, 2,7-bis(4-amidinobenzylidene)-cycloheptanone-(1)], for which the figures for the inhibitory constant (Ki) on Factor Xa, at Factor XIa and at Plasma-kallikrein were 5.1 nM, 42000 nM and 720 nM, respectively. Further, the “suppression of thrombin formation after kaolin activation” value in the assay on thrombin formation (inhibitor 100 μM) was “totally suppressing thrombin formation”.

(Values after patent US8129547B2, “Anticoagulation of human blood ex vivo” (priority 2006, dated 2012).)
